How the values were obtained:
[1] = intravenous bolus dosing, human, open literature data; cited from earlier work
[2] = Solubility of the active agent in Triacetin and in water (stated); type: physicochemical
[3] = Thermal gravimetric analysis of oxycodone base and oxycodone HCl; type: physicochemical
Experimental: Initially, thermal gravimetric analysis was used to measure the weight loss of oxycodone base and oxycodone HC1 in order to determine the correct temperature to conduct the volatilization study. Oxycodone base was subjected to increasing temperature conditions (30 to 350° C.) at a ramping rate of 20° C./min. Vaporization occurred above 200° C. and was complete at 310° C. Vaporization of oxycodone HCl (28 to 400° C.) was analogous to that of the free base up to approximately 300° C. after which significant decomposition of the salt form occurred. Based on these observations, a temperature of 280° C. was selected for this study. This temperature is above the melting point of oxycodone (to ensure adequate drug vaporization) and below 300° C. (to limit decomposition of the salt form). A maximum exposure time of 10 minutes was selected based on pre-test observations that little additional oxycodone was recovered beyond that time point.

[4] = Preliminary in vitro volatilization test on hot plate (Example 4a); type: physicochemical; conditions: 40 mg sample; for Oxycodone Collected (in mg), total: total of 4 time points
From the text: In order to further assess the abuse-resistance performance of the dosage forms of the present invention, the following in vitro volatilization test was developed. In particular, intentional abuse of controlled release pharmaceutical dosage forms may alternatively be carried out by volatilization (smoking, or free-basing) techniques that can liberate active agent (in immediately active form) from commercially available controlled release carrier systems. Accordingly, a preliminary in vitro volatilization test was developed in order to assess: (1) whether oxycodone free base was more volatile than the salt (HCl) form; and (2) whether the abuse-resistant dosage forms produced according to the instant invention can prevent inhalation abuse through volatilization.
Each petri dish was fitted with a watch glass as a cover, and the covered test dishes were placed on a hot plate (setting 10). After 30 seconds each watch glass was replaced with a fresh watch glass, and this step was repeated three times (to obtain 4 time points). Any residue deposited on the bottom side of the test watch glasses was carefully transferred with an Alpha Swab (TX 761) into 40/60 ethanol/0.005M HCl solution, and the concentration of oxycodone solution was determined by HPLC. The observations taken during the test were as follows. […] It was noted that vaporized drug (and solvents where present) escaped during each change of the watch glass, which may be at least partially responsible for the low recovery noted in the HPLC results below. […] The HPLC results obtained in this Example 4a are provided below in Table 30.

SMILES	solubility in Triacetin [2]	solubility in water [2]	Oxycodone Collected ([4]; time point 0.5 minutes) [mg]	Oxycodone Collected ([4]; time point 1.0 minutes) [mg]	Oxycodone Collected ([4]; time point 1.5 minutes) [mg]	Oxycodone Collected ([4]; time point 2.0 minutes) [mg]	Oxycodone Collected (in mg), total [4] [mg]	further results
C[C@H](N)Cc1ccccc1 [d-amphetamine]								unit impulse response parameter A [1]: 98.3±6.01; unit impulse response parameter B [1]: 28.2±0.56; unit impulse response parameter α [1]: 9.65±0.64; unit impulse response parameter β [1]: 6.31×10^−2±3.78×10^−3
COc1ccc2c3c1O[C@H]1C(=O)CC[C@@]4(O)[C@@H](C2)N(C)CC[C@]314.Cl [oxycodone in salt form, oxycodone HCl]	low solubility in Triacetin	high solubility in water						temperature after which significant decomposition occurred ([3]; 28 to 400° C.): approximately 300 °C
COc1ccc2c3c1O[C@H]1C(=O)CC[C@@]4(O)[C@@H](C2)N(C)CC[C@]314 [oxycodone API (free base form)]			1.4730	7.2666	0.7356	0.7050	10.1802	
COc1ccc2c3c1O[C@H]1C(=O)CC[C@@]4(O)[C@@H](C2)N(C)CC[C@]314.Cl [oxycodone API (HCl salt form)]			1.7202	0.4086	0.1236	0.0270	2.2794	
COc1ccc2c3c1O[C@H]1C(=O)CC[C@@]4(O)[C@@H](C2)N(C)CC[C@]314 [oxycodone free base, oxycodone]	high solubility in Triacetin	low water solubility						temperature above which vaporization occurred ([3]; ramping rate 20° C./min): above 200 °C; temperature at which vaporization was complete ([3]; ramping rate 20° C./min): 310 °C

From patent publication US20170319501A1, “Oral Pharmaceutical Dosage Forms” (DURECT CORPORATION, priority 2007, published 2017)
